{"source": "patent US20030130280A1", "about": "“Treatment of acute myeloid leukemia with indolinone compounds” (SUGEN, Inc., priority 2001, published 2003)", "key": {"OC1-AML5 cell line": {"test_system": "OC1-AML5 cell line", "experiment": "Cell viability (trypan blue) and proliferation (alamar blue) with FLT-3 ligand", "assay_type": "cell-based", "conditions": "trypan blue and alamar blue assays", "text": "The first cell line used was the OC1-AML5 cell line known to express the FLT-3 tyrosine kinase. This cell line was maintained in conventional medium containing cytokines to maintain growth in liquid culture. This cell line provides a model to assess activation and inhibition of FLT-3 signaling by FLT-3 ligand and compounds which may inhibit FLT-3. The biological consequences of FLT-3 can be assessed with this cell line.\nThe OC1-AML5 cell line which express FLT-3-wild type was obtained (Pharmacia)."}, "FLT-3 [1]": {"test_system": "FLT-3", "experiment": "Phase I single dose study, FLT-3 phosphorylation in whole blood", "assay_type": "in vivo, human", "conditions": "AML patients, reached in 3 pts at each dose level >200 mg, WT and mutant FLT-3 patients", "procedure": "Immunoprecipitation and Western Blot (IP/W) analysis: Cells were lysed in lysis buffer (20 mM Tris, pH 7.5; 137 mM NaCl; 10% glycerol; 1% NP-40; 0.1% SDS; 2 mM EDTA) containing protease and phosphatase inhibitors (50 mM sodium fluoride, 1 mM sodium orthovanadate, 2 mM Pefabloc, […], […], […], 4 mM leupeptin, and 4 mM pepstatin A). Equivalent amounts of protein were separated by SDS-PAGE, then transferred to nitrocellulose membranes. For analysis of FLT3 phosphorylation, equivalent amounts of protein from each sample were immunoprecipitated overnight at 4*C. with an agarose-conjugated anti-FLT3 antibody (Santa Cruz Biotechnology, Santa Cruz, Calif.). Immune complexes were washed (150 mM NaCl, 1.5 mM MgCl2, 50 mM HEPES, pH 7.5, 10% glycerol, 0.1% Triton X-100, and 1 mM EGTA) and following SDS-PAGE, proteins were transferred to nitrocellulose membranes. Membranes were probed with an anti-phosphotyrosine antibody (Upstate, Lake Placid, N.Y. or Transduction Laboratories, Lexington, Ky.) and then stripped with Restore Western Blot Stripping Buffer (Pierce, Rockford, Ill.). Membranes were reprobed with an anti-FLT3 antibody (Santa Cruz Biotechnology). Stat5 antibodies for immunprecipitation and Western blot analysis were from Upstate Biotechnology and Transduction labs respectively."}, "RS4; 11": {"test_system": "RS4; 11", "experiment": "VEGF production, RS4;11 cells", "assay_type": "cell-based", "conditions": "for VEGF %: 0 uM = 100"}, "MV411 (ITD mutant FLT-3)": {"test_system": "MV411 (ITD mutant FLT-3)", "experiment": "Cell proliferation, MV411", "assay_type": "cell-based"}, "RS411 (wild type FLT-3)": {"test_system": "RS411 (wild type FLT-3)", "experiment": "Apoptosis by PARP cleavage and caspase 3 staining, wild type cells", "assay_type": "cell-based", "conditions": "PARP cleavage, caspase 3 staining", "procedure": "Apoptosis was measured by analysis of PARP cleavage and by caspase 3 staining."}, "FLT-3 [2]": {"biological_target": "T1, FLT-3 (Homo sapiens, UniProt P36888)", "T1 construct": "The OC1-AML5 cell line which express FLT-3-wild type was obtained (Pharmacia); host or cells: OC1-AML5", "T1 sequence (P36888 27-993)": "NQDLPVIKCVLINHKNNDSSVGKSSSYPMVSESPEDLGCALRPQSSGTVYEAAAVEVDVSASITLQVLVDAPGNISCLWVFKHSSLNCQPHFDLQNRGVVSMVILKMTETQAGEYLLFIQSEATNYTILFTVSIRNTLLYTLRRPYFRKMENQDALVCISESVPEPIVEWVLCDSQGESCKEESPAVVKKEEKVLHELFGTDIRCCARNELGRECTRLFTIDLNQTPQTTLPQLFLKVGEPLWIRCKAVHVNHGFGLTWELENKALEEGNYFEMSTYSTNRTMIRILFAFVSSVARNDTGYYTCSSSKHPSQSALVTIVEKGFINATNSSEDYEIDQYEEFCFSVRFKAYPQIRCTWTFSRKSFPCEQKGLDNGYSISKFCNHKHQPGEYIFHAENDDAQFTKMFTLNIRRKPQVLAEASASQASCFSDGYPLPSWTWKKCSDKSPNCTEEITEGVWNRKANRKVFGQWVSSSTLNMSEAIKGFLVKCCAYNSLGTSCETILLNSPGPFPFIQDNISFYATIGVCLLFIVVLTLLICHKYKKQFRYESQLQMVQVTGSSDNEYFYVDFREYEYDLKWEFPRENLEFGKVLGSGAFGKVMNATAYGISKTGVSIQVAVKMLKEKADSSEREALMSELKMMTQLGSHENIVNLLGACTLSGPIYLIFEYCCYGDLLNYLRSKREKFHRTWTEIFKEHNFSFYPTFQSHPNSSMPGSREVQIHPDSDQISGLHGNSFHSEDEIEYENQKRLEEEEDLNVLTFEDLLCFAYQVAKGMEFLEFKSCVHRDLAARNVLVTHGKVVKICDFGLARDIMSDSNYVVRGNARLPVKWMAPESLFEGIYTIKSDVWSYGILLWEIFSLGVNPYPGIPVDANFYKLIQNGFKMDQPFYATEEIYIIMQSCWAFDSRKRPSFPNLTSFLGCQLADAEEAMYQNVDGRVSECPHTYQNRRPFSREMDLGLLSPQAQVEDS", "experiment": "FLT-3 ligand stimulated FLT-3 phosphorylation in OC1-AML5 cells", "assay_type": "cell-based", "conditions": "FLT-3 ligand stimulated OC1-AML5 cells", "text": "Cells were stimulated with FLT-3 ligand and lysed. FLT-3 was immunoprecipitated from lysates with a commercially available antibody. Proteins were separated by SDS-polyacrylamide gel electrophoresis, transferred to membranes and analyzed by Western blotting for phosphotyrosine and subsequently for total FLT-3 protein as control."}, "VEGF": {"test_system": "VEGF", "experiment": "Plasma VEGF by ELISA", "assay_type": "in vivo", "conditions": "plasma of NOD-SCID mice", "procedure": "At experimental endpoints, mice were anesthetized, followed by terminal blood collection via intracardiac puncture. Bone marrow cell suspensions were prepared by flushing mouse femurs with cold, sterile PBS. For all studies, a paired Student's t test was used to assess differences between treated and control groups (P<0.05 was considered significant).\nPlasma from the NOD-SCID mice described above was analyzed by ELISA for VEGF protein levels using a commercially available kit."}, "MV411 tumors": {"test_system": "MV411 tumors", "experiment": "Subcutaneous MV411 tumor model, tumor growth", "assay_type": "in vivo, athymic mice", "conditions": "within 4 days of treatment", "procedure": "Tumor cells, MV411 in the example shown were implanted subcutaneously in the hindflank of athymic mice. […] For measurement of efficacy, tumor growth was measured at various subsequent time points using vernier calipers. For analysis of phosphorylation, tumors were resected following dosing (4 hours here), pulverized in liquid nitrogen and homogenized in lysis buffer. FLT-3 and Stat5 phosphorylation were measured by immunoprecipitation and Western blot analysis.\nAthymic mice were injected subcutaneously with MV411 and RS411 cells to cause tumor formation."}}}
{"smiles": "CCN(CC)CCNC(=O)c1c(C)[nH]c(/C=C2\\C(=O)Nc3ccc(F)cc32)c1C", "note": "[Compound 1, 5-(5-Fluoro-2-oxo-1,2-dihydro-indol-3-ylidenemethyl)-2,4-dimethyl-1H-pyrrole-3-carboxylic acid(2-diethylamino-ethyl)-amide]", "values": [{"measurement": "inhibition of FLT-3 ligand increased cell numbers", "setting": "OC1-AML5 cell line", "result": "some inhibition"}, {"measurement": "inhibition of FLT-3 phosphorylation", "setting": "FLT-3 [1]", "result": "> 50", "unit": "%"}, {"measurement": "VEGF mean sd", "setting": "RS4; 11; CMPD 1 0.00 uM", "result": 32.82}, {"measurement": "VEGF mean sd", "setting": "RS4; 11; CMPD 1 0.01 uM", "result": 9.62}, {"measurement": "VEGF %", "setting": "RS4; 11; CMPD 1 0.01 uM", "result": 31.0, "unit": "%"}, {"measurement": "VEGF mean sd", "setting": "RS4; 11; CMPD 1 0.1 uM", "result": 1.24}, {"measurement": "VEGF %", "setting": "RS4; 11; CMPD 1 0.1 uM", "result": 4.0, "unit": "%"}, {"measurement": "VEGF mean sd", "setting": "RS4; 11; CMPD 1 1 uM", "result": 2.3}, {"measurement": "VEGF %", "setting": "RS4; 11; CMPD 1 1 uM", "result": 7.4, "unit": "%"}, {"measurement": "VEGF mean sd", "setting": "RS4; 11; CMPD 1 10 uM", "result": 2.94}, {"measurement": "VEGF %", "setting": "RS4; 11; CMPD 1 10 uM", "result": 9.5, "unit": "%"}, {"measurement": "expansion of MV411", "setting": "MV411 (ITD mutant FLT-3)", "result": "inhibited expansion"}, {"measurement": "apoptosis", "setting": "RS411 (wild type FLT-3)", "result": "causes apoptosis"}, {"measurement": "FLT-3 phosphorylation", "setting": "FLT-3 [2]", "result": "decreased"}, {"measurement": "VEGF in plasma (mean)", "setting": "VEGF", "result": 49, "unit": "pg/mL"}, {"measurement": "tumor size", "setting": "MV411 tumors", "result": "dramatically reduced tumor size to almost undetectable"}]}
